Assay results as given in patent publication US20150094474A1, “AGRICULTURAL CHEMICALS” (Redx Pharma Ltd., priority 2012, published 2015).

Legend:
barley = test: Herbicidal bioassay, barley (% necrosis); type: in vivo
Summary of the method: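 Scoring of % necrosis followed EPPO guideline PP1/135 at specified growth intervals, five replicates per species and treatment. Plants at the 2-4 true leaf stage received Potter-tower sprays of DMSO-diluted compounds across six levels from 0.0001% to 0.05%, with water and DMSO controls.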

Chinese cabbage = test: Herbicidal bioassay, Chinese cabbage (% necrosis); type: in vivo
Method: A laboratory bioassay was conducted to screen ten compounds (Fluazifop (25); Ethyl fluazifop (62); five fluazifop analogues: 27, 28, 63, 64 and 65; mesofulfuron (6); and two mesosulfuron analogues: 8 and 61. for activity against Lolium perenne, barley, peas and Chinese cabbage. Compounds were diluted in DMSO. Controls were performed using both DMSO and water.
Plants were obtained as seeds and were grown to the 2-4 true leaf stage. Plants were grown individually in seed trays. Each plant (in an approximately 3 cm diameter plug) was then detached from the tray for spraying. Environmental conditions were closely monitored and recorded and were within the optimal range of the target species.
The compounds were screened at a range of six concentrations, eg. 0.05%, 0.01%, 0.005%, 0.001%, 0.0005% and 0.0001%. Treatments will be applied directly onto the plants, using a potter tower.
One plant of each type will be sprayed using a potter tower. The 4 different types of weeds will be placed in a 10 cm diameter area underneath the potter sprayer and sprayed simultaneously. The growth of the plants and any Phytotoxicity effects will then be assessed at specified growth intervals, according to EPPO guideline PP1/135. Five replicates will be performed for each treatment, for each species.

Question: How did the “Sum of % necrosis in barley” value (barley; Dose 0.000001, Day 0) turn out when CCOC(=O)C(C)Oc1ccc(Oc2ccc(C(F)(F)F)cn2)cc1 (stereo not drawn) [Fluazifop Ethyl ester (62)] was run?
Answer: The value was “C (less than 50% necrosis)”.

Question: And the “Sum of % necrosis in barley” value (barley; Dose 0.000001, Day 1)?
Answer: The value was “C (less than 50% necrosis)”.

Question: What about the “Sum of % necrosis in barley” value (barley; Dose 0.000001, Day 3) of the same molecule?
Answer: The value was “C (less than 50% necrosis)”.

Question: And the “Sum of % necrosis in barley” value (barley; Dose 0.000001, Day 7)?
Answer: Its value is “C (less than 50% necrosis)”.

Question: And the “Sum of % necrosis in barley” value (barley; Dose 0.000001, Day 10)?
Answer: The value was “C (less than 50% necrosis)”.

Question: And the “Sum of % necrosis in barley” value (barley; Dose 0.000001, Day 14)?
Answer: The value was “C (less than 50% necrosis)”.

Question: And the “Sum of % necrosis in barley” value (barley; Dose 0.000001, Day 21)?
Answer: The value was “C (less than 50% necrosis)”.

Question: And the “Sum of % necrosis in barley” value (barley; Dose 0.000005, Day 0)?
Answer: The value was “C (less than 50% necrosis)”.

Question: What about the “Sum of % necrosis in barley” value (barley; Dose 0.000005, Day 1) of the same molecule?
Answer: Its value is “C (less than 50% necrosis)”.

Question: What about the “Sum of % necrosis in barley” value (barley; Dose 0.000005, Day 3) of the same molecule?
Answer: Its value is “C (less than 50% necrosis)”.

Question: And the “Sum of % necrosis in barley” value (barley; Dose 0.000005, Day 7)?
Answer: Its value is “C (less than 50% necrosis)”.

Question: And the “Sum of % necrosis in barley” value (barley; Dose 0.000005, Day 10)?
Answer: Its value is “C (less than 50% necrosis)”.

Question: And the “Sum of % necrosis in barley” value (barley; Dose 0.000005, Day 14)?
Answer: Its value is “C (less than 50% necrosis)”.

Question: And the “Sum of % necrosis in barley” value (barley; Dose 0.000005, Day 21)?
Answer: The value was “C (less than 50% necrosis)”.

Question: What about the “Sum of % necrosis in barley” value (barley; Dose 0.00001, Day 0) of the same molecule?
Answer: Its value is “C (less than 50% necrosis)”.

Question: And the “Sum of % necrosis in barley” value (barley; Dose 0.00001, Day 1)?
Answer: The value was “C (less than 50% necrosis)”.

Question: What about the “Sum of % necrosis in barley” value (barley; Dose 0.00001, Day 3) of the same molecule?
Answer: The value was “C (less than 50% necrosis)”.

Question: What about the “Sum of % necrosis in barley” value (barley; Dose 0.00001, Day 7) of the same molecule?
Answer: Its value is “C (less than 50% necrosis)”.

Question: And the “Sum of % necrosis in barley” value (barley; Dose 0.00001, Day 10)?
Answer: The value was “C (less than 50% necrosis)”.

Question: What about the “Sum of % necrosis in barley” value (barley; Dose 0.00001, Day 14) of the same molecule?
Answer: Its value is “C (less than 50% necrosis)”.

Question: What about the “Sum of % necrosis in barley” value (barley; Dose 0.00001, Day 21) of the same molecule?
Answer: The value was “B (50%-80% necrosis)”.

Question: And the “Sum of % necrosis in barley” value (barley; Dose 0.00005, Day 0)?
Answer: Its value is “C (less than 50% necrosis)”.

Question: What about the “Sum of % necrosis in barley” value (barley; Dose 0.00005, Day 1) of the same molecule?
Answer: Its value is “C (less than 50% necrosis)”.

Question: What about the “Sum of % necrosis in barley” value (barley; Dose 0.00005, Day 3) of the same molecule?
Answer: The value was “C (less than 50% necrosis)”.

Question: And the “Sum of % necrosis in barley” value (barley; Dose 0.00005, Day 7)?
Answer: The value was “C (less than 50% necrosis)”.

Question: What about the “Sum of % necrosis in barley” value (barley; Dose 0.00005, Day 10) of the same molecule?
Answer: The value was “C (less than 50% necrosis)”.

Question: And the “Sum of % necrosis in barley” value (barley; Dose 0.00005, Day 14)?
Answer: Its value is “C (less than 50% necrosis)”.

Question: What about the “Sum of % necrosis in barley” value (barley; Dose 0.00005, Day 21) of the same molecule?
Answer: The value was “B (50%-80% necrosis)”.

Question: And the “Sum of % necrosis in barley” value (barley; Dose 0.0001, Day 0)?
Answer: Its value is “C (less than 50% necrosis)”.

Question: What about the “Sum of % necrosis in barley” value (barley; Dose 0.0001, Day 1) of the same molecule?
Answer: Its value is “C (less than 50% necrosis)”.

Question: What about the “Sum of % necrosis in barley” value (barley; Dose 0.0001, Day 3) of the same molecule?
Answer: The value was “C (less than 50% necrosis)”.

Question: And the “Sum of % necrosis in barley” value (barley; Dose 0.0001, Day 7)?
Answer: Its value is “C (less than 50% necrosis)”.

Question: What about the “Sum of % necrosis in barley” value (barley; Dose 0.0001, Day 10) of the same molecule?
Answer: Its value is “C (less than 50% necrosis)”.

Question: What about the “Sum of % necrosis in barley” value (barley; Dose 0.0001, Day 14) of the same molecule?
Answer: Its value is “C (less than 50% necrosis)”.

Question: What about the “Sum of % necrosis in barley” value (barley; Dose 0.0001, Day 21) of the same molecule?
Answer: Its value is “A (over 80% necrosis)”.

Question: What about the “Sum of % necrosis in barley” value (barley; Dose 0.0005, Day 0) of the same molecule?
Answer: The value was “C (less than 50% necrosis)”.

Question: And the “Sum of % necrosis in barley” value (barley; Dose 0.0005, Day 1)?
Answer: Its value is “C (less than 50% necrosis)”.

Question: What about the “Sum of % necrosis in barley” value (barley; Dose 0.0005, Day 3) of the same molecule?
Answer: Its value is “C (less than 50% necrosis)”.

Question: And the “Sum of % necrosis in barley” value (barley; Dose 0.0005, Day 7)?
Answer: Its value is “C (less than 50% necrosis)”.

Question: What about the “Sum of % necrosis in barley” value (barley; Dose 0.0005, Day 10) of the same molecule?
Answer: The value was “C (less than 50% necrosis)”.

Question: And the “Sum of % necrosis in barley” value (barley; Dose 0.0005, Day 14)?
Answer: The value was “C (less than 50% necrosis)”.

Question: And the “Sum of % necrosis in barley” value (barley; Dose 0.0005, Day 21)?
Answer: Its value is “A (over 80% necrosis)”.

Question: What about the “Sum of % necrosis in Chinese cabbage” value (Chinese cabbage; Dose 0.000001, Day 0) of the same molecule?
Answer: The value was “C (less than 50% necrosis)”.

Question: What about the “Sum of % necrosis in Chinese cabbage” value (Chinese cabbage; Dose 0.000001, Day 1) of the same molecule?
Answer: The value was “C (less than 50% necrosis)”.

Question: And the “Sum of % necrosis in Chinese cabbage” value (Chinese cabbage; Dose 0.000001, Day 3)?
Answer: Its value is “C (less than 50% necrosis)”.

Question: And the “Sum of % necrosis in Chinese cabbage” value (Chinese cabbage; Dose 0.000001, Day 7)?
Answer: Its value is “C (less than 50% necrosis)”.

Question: What about the “Sum of % necrosis in Chinese cabbage” value (Chinese cabbage; Dose 0.000001, Day 10) of the same molecule?
Answer: The value was “C (less than 50% necrosis)”.

Question: What about the “Sum of % necrosis in Chinese cabbage” value (Chinese cabbage; Dose 0.000001, Day 14) of the same molecule?
Answer: The value was “C (less than 50% necrosis)”.

Question: What about the “Sum of % necrosis in Chinese cabbage” value (Chinese cabbage; Dose 0.000001, Day 21) of the same molecule?
Answer: The value was “C (less than 50% necrosis)”.

Question: And the “Sum of % necrosis in Chinese cabbage” value (Chinese cabbage; Dose 0.000005, Day 0)?
Answer: The value was “C (less than 50% necrosis)”.

Question: What about the “Sum of % necrosis in Chinese cabbage” value (Chinese cabbage; Dose 0.000005, Day 1) of the same molecule?
Answer: Its value is “C (less than 50% necrosis)”.

Question: And the “Sum of % necrosis in Chinese cabbage” value (Chinese cabbage; Dose 0.000005, Day 3)?
Answer: The value was “C (less than 50% necrosis)”.

Question: And the “Sum of % necrosis in Chinese cabbage” value (Chinese cabbage; Dose 0.000005, Day 7)?
Answer: The value was “C (less than 50% necrosis)”.

Question: What about the “Sum of % necrosis in Chinese cabbage” value (Chinese cabbage; Dose 0.000005, Day 10) of the same molecule?
Answer: The value was “A (over 80% necrosis)”.

Question: What about the “Sum of % necrosis in Chinese cabbage” value (Chinese cabbage; Dose 0.000005, Day 14) of the same molecule?
Answer: The value was “A (over 80% necrosis)”.

Question: What about the “Sum of % necrosis in Chinese cabbage” value (Chinese cabbage; Dose 0.000005, Day 21) of the same molecule?
Answer: Its value is “A (over 80% necrosis)”.

Question: And the “Sum of % necrosis in Chinese cabbage” value (Chinese cabbage; Dose 0.00001, Day 0)?
Answer: Its value is “C (less than 50% necrosis)”.

Question: And the “Sum of % necrosis in Chinese cabbage” value (Chinese cabbage; Dose 0.00001, Day 1)?
Answer: Its value is “C (less than 50% necrosis)”.

Question: What about the “Sum of % necrosis in Chinese cabbage” value (Chinese cabbage; Dose 0.00001, Day 3) of the same molecule?
Answer: The value was “C (less than 50% necrosis)”.

Question: What about the “Sum of % necrosis in Chinese cabbage” value (Chinese cabbage; Dose 0.00001, Day 7) of the same molecule?
Answer: The value was “C (less than 50% necrosis)”.

Question: What about the “Sum of % necrosis in Chinese cabbage” value (Chinese cabbage; Dose 0.00001, Day 10) of the same molecule?
Answer: The value was “B (50%-80% necrosis)”.

Question: And the “Sum of % necrosis in Chinese cabbage” value (Chinese cabbage; Dose 0.00001, Day 14)?
Answer: The value was “A (over 80% necrosis)”.

Question: What about the “Sum of % necrosis in Chinese cabbage” value (Chinese cabbage; Dose 0.00001, Day 21) of the same molecule?
Answer: Its value is “A (over 80% necrosis)”.
